± gives the standard deviation of the averaged measurements.
Columns and labels:
Assay in all cases: LOEC (log10 uM (lowest observed effect concentration))
[1] = compound: O=S(=O)(Cl)C(F)(F)C(F)(F)C(F)(F)C(F)(F)C(F)(F)C(F)(F)C(F)(F)C(F)(F)F [Perfluoro-1-octanesulfonyl chloride]
Procedure: (§1)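 BioMAP Diversity Plus panel in human primary cell co-cultures, 4 concentrations in duplicate blinded samples. Responses are log10 fold change versus DMSO control, processed with tcpl v2.1.0. A hit is called when responses at any concentration exceed the cutoff (the larger of 3*bmad or log10(1.2)); the lowest observed effect concentration (modl_ga, log10 uM) is reported for hits.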

[2] = compound: C=CC(=O)OCC(F)(F)C(F)(F)C(F)(F)COC(=O)C=C [1H,1H,5H,5H-Perfluoro-1,5-pentanediol diacrylate]
Procedure: as §1

[3] = compound: NS(=O)(=O)C(F)(F)C(F)(F)C(F)(F)C(F)(F)C(F)(F)C(F)(F)F [Perfluorohexanesulfonamide]
Procedure: as §1

[4] = compound: O=C(O)C(F)(F)C(F)(F)C(F)(F)C(F)(F)C(F)(F)C(F)(F)C(F)(F)C(F)(F)C(F)(F)C(F)F [11-H-Perfluoroundecanoic acid]
Procedure: as §1

Nonafluoropentanamide = compound: NC(=O)C(F)(F)C(F)(F)C(F)(F)C(F)(F)F [Nonafluoropentanamide]
Procedure: as §1

[5] = compound: COC(=O)C(F)(F)C(F)(F)OC(F)(C(F)(F)F)C(F)(F)OC(F)=C(F)F [Methyl perfluoro(3-(1-ethenyloxypropan-2-yloxy)propanoate)]
Procedure: as §1

[6] = compound: O=S(=O)(O)CCC(F)(F)C(F)(F)C(F)(F)C(F)(F)C(F)(F)C(F)(F)F [6:2 Fluorotelomer sulfonic acid]
Procedure: as §1

[7] = compound: FC(F)(F)C(F)(F)C(F)(F)C(F)(F)C(F)(F)C(F)(F)C(F)(F)I [1-Iodopentadecafluoroheptane]
Procedure: as §1

Test System | LOEC (log10 uM) [1] | LOEC (log10 uM) [2] | LOEC (log10 uM) [3] | LOEC (log10 uM) [4] | also measured
3C Eselectin up | 1.78 |  |  |  | 
3C HLADR down |  | 1.07 ± 0.32 | 1.78 |  | 
3C IL8 up | 1.78 |  |  |  | 
3C MCP1 down |  | 1.3 |  | 1.78 | 
3C Proliferation down |  | 0.301 | 1.78 | 1.78 | 
3C SRB down | 1.78 | 1.3 | 1.78 | 1.78 | 
3C Thrombomodulin down |  |  |  |  | LOEC (log10 uM) (Nonafluoropentanamide): 1.31 ± 0.66
3C Thrombomodulin up | 1.78 | 1.3 |  | 1.78 | 
3C uPAR down | 1.78 | 1.78 |  |  | 
4H Eotaxin3 down |  | 0.845 | 1.78 | 1.78 | 
4H SRB down |  | 1.3 | 1.78 | 1.78 | 
4H VCAM1 down |  | 1.3 |  | 1.78 | 
BE3C EGFR down | 1.78 |  |  | 1.3 | 
BE3C HLADR down | 1.78 | 1.3 |  | 1.3 | 
BE3C ICAM1 down | 1.78 | 1.3 |  | 1.3 | 
BE3C IL1a down | 1.78 | 1.3 |  | 1.3 | 
BE3C IL8 down | 1.78 | 1.3 | 1.3 |  | 
BE3C IP10 down | 1.3 | 1.54 ± 0.34 | 1.54 ± 0.34 | 0.845 | 
BE3C ITAC down | 1.78 | 1.78 |  | 1.3 | LOEC (log10 uM) [5]: 0.845
BE3C MIG down | 1.78 | 1.78 |  | 1.3 | 
BE3C MMP1 up |  |  | 1.78 |  | LOEC (log10 uM) [5]: 0.573 ± 0.39
BE3C MMP9 down | 1.78 | 1.3 | 1.78 | 1.07 ± 0.32 | 
BE3C PAI1 down | 1.78 |  | 1.54 ± 0.34 | 1.3 | 
BE3C SRB down | 1.78 |  |  | 1.3 | 
BE3C tPA down | 1.78 | 1.3 | 1.78 | 1.3 | LOEC (log10 uM) [5]: 0.0731 ± 0.32
BE3C uPA down | 1.78 | 1.78 |  | 1.3 | 

Test System | LOEC (log10 uM) [1] | LOEC (log10 uM) [2] | LOEC (log10 uM) [3] | LOEC (log10 uM) [4] | also measured
BE3C uPAR down | 1.78 | 1.78 | 1.78 | 1.3 | 
BF4T Eotaxin3 down | 1.78 | 1.78 |  | 0.801 ± 0.71 | 
BF4T ICAM1 down | 1.78 | 1.07 ± 0.32 |  | 1.3 | 
BF4T IL1a down | 1.78 | 1.78 |  | 1.54 ± 0.34 | 
BF4T Keratin818 down |  | 1.78 |  | 1.78 | 
BF4T MCP1 down | 1.78 | 1.3 | 1.78 | 0.573 ± 0.39 | 
BF4T MMP3 down |  |  |  | 1.78 | 
BF4T MMP3 up |  |  |  |  | LOEC (log10 uM) [5]: 0.845
BF4T MMP9 down | 1.78 | 1.3 |  | 1.3 | 
BF4T PAI1 down | 1.78 | 1.3 |  | 0.801 ± 0.71 | 
BF4T SRB down | 1.78 | 1.78 |  | 1.3 | 
BF4T VCAM1 down |  | 1.3 | 1.54 ± 0.34 |  | 
BF4T tPA down | 1.54 ± 0.34 | 1.3 |  | 0.845 | 
BF4T uPA down | 1.78 | 1.78 |  | 1.78 | 
BT Bcell Proliferation up | 1.78 |  |  |  | 
BT PBMCCytotoxicity up | 1.78 |  |  | 1.78 | 
IMphg CD40 down |  | 1.3 | 1.78 |  | 
IMphg CD69 down |  | 1.78 | 1.78 |  | 
IMphg ESelectin down |  | 1.3 | 1.78 |  | 
IMphg IL1a up |  |  | 1.54 ± 0.34 |  | LOEC (log10 uM) [5]: 0.845
IMphg IL8 up |  |  | 1.78 |  | LOEC (log10 uM) [5]: 0.301
IMphg IL10 down | 1.78 | 1.3 | 1.78 | 1.78 | 
IMphg MCP1 down |  | 1.3 | 1.78 | 1.78 | 
IMphg MCSF down |  |  | 1.07 ± 0.32 |  | 
IMphg SRB down |  |  |  | 1.78 | 
IMphg SRB.Mphg down |  | 1.78 |  | 1.78 | 

Test System | LOEC (log10 uM) [1] | LOEC (log10 uM) [2] | LOEC (log10 uM) [3] | LOEC (log10 uM) [4] | also measured
IMphg VCAM1 down |  | 1.07 ± 0.32 |  | 1.78 | 
KF3CT IL1a down |  | 0.573 ± 0.39 |  | 1.78 | 
KF3CT IP10 down | 1.78 | 1.3 | 1.78 | 1.3 | 
KF3CT MCP1 down |  | 1.3 |  | 1.3 | 
KF3CT MIG down |  | 1.3 |  | 1.78 | 
KF3CT MMP9 down | 1.78 | 1.3 |  | 1.3 | 
KF3CT PAI1 down | 1.3 | 1.3 |  | 1.3 | 
KF3CT SRB down |  | 1.3 |  | 1.78 | 
KF3CT uPA down |  | 1.3 |  | 1.78 | 
LPS CD40 down |  | 0.845 | 1.78 | 1.78 | 
LPS CD69 down |  | 1.3 | 1.78 | 1.78 | 
LPS Eselectin down |  | 1.3 |  | 1.78 | 
LPS IL8 up | 1.78 |  |  |  | LOEC (log10 uM) [6]: 1.54 ± 0.34
LPS MCP1 down |  | 1.3 |  | 1.78 | 
LPS PGE2 down | 1.78 | 1.3 |  | 1.78 | 
LPS PGE2 up |  |  | 1.54 ± 0.34 |  | 
LPS SRB down |  | 1.3 |  | 1.78 | 
LPS Thrombomodulin up |  | 1.3 |  | 1.31 ± 0.66 | 
LPS VCAM1 down |  | 1.07 ± 0.32 | 1.78 | 1.78 | 
MyoF ACTA1 down |  | 0.845 |  | 1.54 ± 0.34 | LOEC (log10 uM) [7]: 0.301
MyoF CollagenI down |  | 1.3 |  | 1.3 | LOEC (log10 uM) [7]: 0.845
MyoF CollagenIII down | 1.78 | 1.3 |  | 1.3 | LOEC (log10 uM) [7]: 0.845
MyoF CollagenIV up | 1.78 |  | 1.3 | 1.07 ± 0.32 | LOEC (log10 uM) [7]: 0.845
MyoF MMP1 up |  | 0.845 |  |  | LOEC (log10 uM) [7]: 0.573 ± 0.39
MyoF PAI1 down |  | 1.3 |  | 1.78 | 
MyoF SRB down |  | 1.3 | 1.78 | 1.3 | LOEC (log10 uM) [7]: 0.845

Test System | LOEC (log10 uM) [1] | LOEC (log10 uM) [2] | LOEC (log10 uM) [3] | LOEC (log10 uM) [4] | also measured
MyoF VCAM1 down |  | 0.845 |  | 1.3 | LOEC (log10 uM) [7]: 0.573 ± 0.39
SAg CD38 down |  | 1.07 ± 0.32 |  | 1.78 | 
SAg CD40 down |  | 0.845 | 1.78 | 1.78 | 
SAg CD69 down |  | 0.845 | 1.78 | 1.78 | 
SAg Eselectin down |  | 0.845 | 1.78 | 1.78 | 
SAg Eselectin up | 1.78 |  |  |  | 
SAg IL8 down |  | 0.845 | 1.78 | 1.78 | 
SAg MCP1 down |  | 0.845 |  | 1.78 | 
SAg PBMCCytotoxicity up |  |  | 1.78 |  | 
SAg Proliferation down |  | 0.301 |  | 1.78 | 
SAg SRB down | 1.78 | 1.3 |  | 1.78 | 
hDFCGF CollagenIII down |  | 0.573 ± 0.39 |  | 0.845 | 
hDFCGF IP10 down |  | 0.301 | 1.54 ± 0.34 | 0.573 ± 0.39 | LOEC (log10 uM) [5]: 0.845
hDFCGF ITAC down |  | 0.301 | 1.78 | 0.573 ± 0.39 | LOEC (log10 uM) [5]: 0.845
hDFCGF MCP1 down |  | 0.301 |  | 1.78 | 
hDFCGF MCP1 up |  |  | 1.78 |  | 
hDFCGF MCSF down |  | 0.301 |  | 1.54 ± 0.34 | 
hDFCGF MIG down |  | 0.301 |  | 0.573 ± 0.39 | 
hDFCGF PAI1 down |  | 0.845 |  | 1.78 | 
hDFCGF Proliferation down |  | 0.301 | 1.78 | 0.845 | 
hDFCGF SRB up |  |  |  |  | LOEC (log10 uM) [5]: 0.301
hDFCGF TIMP2 down |  |  | 1.78 |  | 
hDFCGF VCAM1 down |  | 0.301 |  | 0.801 ± 0.71 | LOEC (log10 uM) [5]: 0.845
